Experimental data taken from US20050090652A1, “Highly homogenous serum albumin as chiral selector” (priority 2002, published 2005).
Where two headings read alike, the source gives them in different places.

Experiments:
albumin = albumin (Homo sapiens, UniProt P02768); settings: binding to albumin; Peters et al.; Kragh-Hansen 1990; cited from earlier work
[1] = molecular target: T1, recombinant human serum albumin (rHA) immobilised on silica (Homo sapiens, UniProt P02768); settings: pH 7.5
[2] = molecular target: T1, recombinant human serum albumin (rHA) immobilised on silica; assay: Enantioselective HPLC analysis by the rHA-based column; settings: 1-propanol/phosphate buffer (pH 7.5) 15/85 (v/v), 0.6 ml/min flow rate

Sequence of albumin (P02768 25-609, species assumed): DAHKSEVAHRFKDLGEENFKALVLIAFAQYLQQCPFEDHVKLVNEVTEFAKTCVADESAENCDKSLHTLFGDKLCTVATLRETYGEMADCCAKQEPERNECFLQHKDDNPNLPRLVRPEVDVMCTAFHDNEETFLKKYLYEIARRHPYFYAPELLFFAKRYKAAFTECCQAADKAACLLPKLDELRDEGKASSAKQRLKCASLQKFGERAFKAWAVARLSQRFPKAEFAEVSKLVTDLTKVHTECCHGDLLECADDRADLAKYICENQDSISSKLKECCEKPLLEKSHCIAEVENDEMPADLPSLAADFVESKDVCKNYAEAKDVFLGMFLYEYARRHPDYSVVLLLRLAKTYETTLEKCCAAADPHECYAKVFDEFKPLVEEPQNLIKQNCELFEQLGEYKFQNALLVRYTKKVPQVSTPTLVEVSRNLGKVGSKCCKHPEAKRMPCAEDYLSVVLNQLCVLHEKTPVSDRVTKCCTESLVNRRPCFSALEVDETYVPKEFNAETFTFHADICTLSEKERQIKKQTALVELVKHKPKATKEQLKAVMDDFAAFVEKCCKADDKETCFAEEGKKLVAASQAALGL
T1 sequence (P02768 25-609): as the sequence (P02768 25-609, species assumed) above

## N[C@@H](Cc1c[nH]c2ccccc12)C(=O)O [L-tryptophan]
albumin
  affinity relative to the other enantiomer (antipode): 100 fold

## O=C(O)CCC(=O)O[C@@H]1N=C(c2ccccc2)c2cc(Cl)ccc2NC1=O [(S)-oxazepam-hemisuccinate]
albumin
  affinity relative to the other enantiomer (antipode): 35 fold

## CC(C)CC(NC(=O)c1ccccc1)C(=O)O (racemic) [N-benzoyl-DL-leucine]
[1]
  enantioselectivity (α): 2.8

## rac-lorazepam hemisuccinate
[2]
  enantioselectivity (α): 5.3
